By pEC50 is commonly meant −log10 of the EC50, conventionally taken in molar units. As a reminder, the melting point is the temperature, or range, at which the solid turns liquid.

We go through 29 compounds from patent US20090215822A1, “Substituted Oxadiazole Derivatives as Positive Allosteric Modulators of Metabotropic Glutamate Receptors” (NIKEM RESEARCH SRL, priority 2005, published 2009).

The target in data set [1] is T1, rat mGluR5 receptor (Rattus norvegicus, UniProt P31424).
T1 construct: expressed in transfected cells
The experiment in a line: mGluR5 assay on HEK-expressing rat mGluR5 (fluorescent cell based Ca2+ mobilization assay). The following applies: HEK-293 cells stably expressing rat mGluR5; no co-addition of glutamate; mean of at least three independent experiments in duplicate; read-out: Ca++ Flux (mean EC50). Here is the method: Positive functional expression of HEK-293 cells stably expressing rat mGluR5 receptor was determined by measuring intracellular Ca^2+ changes using a Fluorometric Imaging Plate Reader (FLIPR, Molecular Devices, Sunnyvale, Calif.) in response to glutamate or selective known mGluR5 agonists and antagonists. Rat mGluR5 RT-PCR products in HEK-293 cells were sequenced and found 100% identical to rat mGluR5 Genbank reference sequence (NM_017012). HEK-293 cells expressing rmGluR5 were maintained in media containing DMEM, dialyzed Fetal Bovine Serum (10%), Glutamax™ (2 mM), Penicillin (100 units/ml), Streptomycin (100 μg/ml), Geneticin (100 μg/ml) and Hygromycin-B (40 μg/ml) at 37° C./5% CO2.
After one day of incubation, cells were washed with assay buffer containing: 142 mM NaCl, 6 mM KCl, 1 mM Mg2SO4, 1 mM CaCl2, 20 mM HEPES, 1 g/L glucose, 0.125 mM sulfinpyrazone, pH 7.4. After 60 min of loading with 4 uM Fluo-4 (TefLabs, Austin, Tex.), the cells were washed three times with 50 μl of PBS Buffer and resuspended in […] of assay Buffer. The plates were then transferred to a Fluorometric Imaging Plate Reader (FLIPR, Molecular Devices, Sunnyvale, Calif.) for the assessment of intracellular calcium flux. After monitoring the baseline fluorescence for 10 seconds, increasing concentrations of representative compound (from 0.01 to 60 μM) of the present invention diluted in Assay Buffer (15 μl of 4× dilutions) was added to the cell. The final DMSO concentration in the assay was 0.3%. In each experiment, fluorescence was then monitored as a function of time for 3 minutes and the data analyzed using Microsoft Excel and GraphPad Prism. Each data point was also measured two times.
Under these experimental conditions, this HEK-rat mGluR5 cell line is able to directly detect positive allosteric modulators without the need of co-addition of glutamate or mGluR5 agonist.
The concentration-response curves of representative compounds of the present invention were generated using the Prism GraphPad software (Graph Pad Inc, San Diego, USA). The curves were fitted to a four-parameter logistic equation:
(Y=Bottom+(Top-Bottom)/(1+10̂((Log EC50−X)*Hill Slope)
allowing determination of EC50 values.
The Table 1 below represents the mean EC50 obtained from at least three independent experiments of selected molecules performed in duplicate.
A general note: Calcium assays in cells follow changes in intracellular calcium, usually with a dye or a luminescent sensor.

pEC50: −log10 of the molar value. Bounds are passed on as bounds.

T1 sequence (P31424 21-1171 isoform P31424-2 limits assumed): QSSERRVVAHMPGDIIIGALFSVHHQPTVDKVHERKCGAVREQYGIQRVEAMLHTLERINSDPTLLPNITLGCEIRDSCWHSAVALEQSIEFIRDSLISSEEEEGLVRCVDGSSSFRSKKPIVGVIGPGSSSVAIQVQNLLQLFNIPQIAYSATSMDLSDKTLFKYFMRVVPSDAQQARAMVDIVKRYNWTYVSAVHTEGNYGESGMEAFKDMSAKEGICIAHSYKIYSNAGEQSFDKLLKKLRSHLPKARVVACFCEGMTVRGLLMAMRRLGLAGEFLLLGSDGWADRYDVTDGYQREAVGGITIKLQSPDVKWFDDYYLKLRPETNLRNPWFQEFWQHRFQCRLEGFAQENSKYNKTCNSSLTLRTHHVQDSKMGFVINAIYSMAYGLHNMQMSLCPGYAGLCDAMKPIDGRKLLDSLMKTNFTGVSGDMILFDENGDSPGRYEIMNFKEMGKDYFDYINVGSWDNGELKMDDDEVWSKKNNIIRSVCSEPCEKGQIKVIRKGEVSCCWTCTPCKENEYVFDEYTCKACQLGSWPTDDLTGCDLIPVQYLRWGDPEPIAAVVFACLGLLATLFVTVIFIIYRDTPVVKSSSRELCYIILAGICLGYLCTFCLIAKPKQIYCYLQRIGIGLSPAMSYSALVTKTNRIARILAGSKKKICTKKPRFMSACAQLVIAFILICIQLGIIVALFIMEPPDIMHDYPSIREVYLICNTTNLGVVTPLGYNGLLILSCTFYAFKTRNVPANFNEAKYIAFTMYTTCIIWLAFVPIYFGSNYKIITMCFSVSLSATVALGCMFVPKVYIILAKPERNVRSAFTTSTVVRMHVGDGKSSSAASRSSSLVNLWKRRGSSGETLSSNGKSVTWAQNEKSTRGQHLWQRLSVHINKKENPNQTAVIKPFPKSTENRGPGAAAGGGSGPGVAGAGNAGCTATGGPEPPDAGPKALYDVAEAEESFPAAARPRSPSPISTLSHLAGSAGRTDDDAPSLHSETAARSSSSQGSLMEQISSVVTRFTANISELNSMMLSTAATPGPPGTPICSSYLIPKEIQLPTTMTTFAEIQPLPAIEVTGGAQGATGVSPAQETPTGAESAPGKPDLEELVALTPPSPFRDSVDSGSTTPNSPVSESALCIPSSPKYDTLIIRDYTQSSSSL

In the case of `O=C(c1ccc(F)nc1)N1CCCC(c2noc(-c3ccc(F)cc3F)n2)C1` (stereo not drawn) [Example 25, {3-[5-(2,4-Difluoro-phenyl)-[1,2,4]oxadiazol-3-yl]-piperidin-1-yl}-(6-fluoro-pyridin-3-yl)-methanone], the melting point amounted to 87 °C. Further, the pEC50 in data set [1] was 5.00 to 6.00.

`O=C(c1ccc(F)cc1F)N1CCCC(c2noc(-c3ccccc3F)n2)C1` (stereo not drawn) [Example 4, (2,4-Difluoro-phenyl)-{3-[5-(2-fluoro-phenyl)-[1,2,4]oxadiazol-3-yl]-piperidin-1-yl}-methanone]: the pEC50 in data set [1] is above 6.00.

As to `O=C(c1cccc(F)c1F)N1CCC[C@H](c2noc(-c3ccccn3)n2)C1` [Example 55, (2,3-Difluoro-phenyl)-[(S)-3-(5-pyridin-2-yl-[1,2,4]oxadiazol-3-yl)-piperidin-1-yl]-methanone], in data set [1], the negative-log EC50 (pEC50) is 5.00 to 6.00.

Take `O=C(c1ccc(F)cc1)N1CCCC(c2noc(-c3ccccc3)n2)C1` (stereo not drawn) [Example 26, (4-Fluoro-phenyl)-[3-(5-phenyl-[1,2,4]oxadiazol-3-yl)-piperidin-1-yl]-methanone]: the pEC50 in data set [1] is above 6.00.

In turn, `Cc1oncc1C(=O)N1CCCC(c2noc(-c3ccc(F)cc3)n2)C1` (stereo not drawn) [Example 28, {3-[5-(4-Fluoro-phenyl)-[1,2,4]oxadiazol-3-yl]-piperidin-1-yl}-(5-methyl-isoxazol-4-yl)-methanone] showed a melting point of 105 to 107 °C. For the same compound, the pEC50 in data set [1] is above 6.00.

Regarding `Cn1cnc(-c2nc([C@H]3CCCN(C(=O)c4ccc(F)cc4)C3)no2)c1` [Example 48, (4-Fluoro-phenyl)-{(S)-3-[5-(1-methyl-1H-imidazol-4-yl)-[1,2,4]oxadiazol-3-yl]-piperidin-1-yl}-methanone], in data set [1], the pEC50 was below 5.00.

As for `O=C(c1ccc(F)cc1)N1CCC[C@H](c2noc(-c3ccncc3F)n2)C1` [Example 49, (4-Fluoro-phenyl)-{(S)-3-[5-(3-fluoro-pyridin-4-yl)-[1,2,4]oxadiazol-3-yl]-piperidin-1-yl}-methanone], in data set [1], the pEC50 was 5.00 to 6.00.

The compound `O=C(c1ccc(F)c(F)c1)N1CCCC(c2noc(-c3ccccc3F)n2)C1` (stereo not drawn) [Example 3, (3,4-Difluoro-phenyl)-{3-[5-(2-fluoro-phenyl)-[1,2,4]oxadiazol-3-yl]-piperidin-1-yl}-methanone] came in with a melting point of 80 to 83 °C. Further, the negative-log EC50 (pEC50) in data set [1] was above 6.00.

`O=C(c1ccc(F)c(F)c1)N1CCCC(c2noc(-c3ccncc3)n2)C1` (stereo not drawn) [Example 15, (3,4-Difluoro-phenyl)-[3-(5-pyridin-4-yl-[1,2,4]oxadiazol-3-yl)-piperidin-1-yl]-methanone] registered a melting point of 132 to 134 °C. Besides, the pEC50 in data set [1] is above 6.00.

Turning to `O=C(c1cc(F)ccc1F)N1CCC[C@H](c2noc(-c3ccccn3)n2)C1` [Example 54, (2,5-Difluoro-phenyl)-[(S)-3-(5-pyridin-2-yl-[1,2,4]oxadiazol-3-yl)-piperidin-1-yl]-methanone], the pEC50 in data set [1] is above 6.00.

Compound `O=C(c1ccnc(F)c1)N1CCC[C@H](c2noc(-c3ccc(F)cc3)n2)C1` [Example 40, {(S)-3-[5-(4-Fluoro-phenyl)-[1,2,4]oxadiazol-3-yl]-piperidin-1-yl}-(2-fluoro-pyridin-4-yl)-methanone] displayed a melting point of 117 to 119 °C. For the same compound, the pEC50 in data set [1] is above 6.00.

As to `O=C(c1ccc(F)nc1)N1CCCC(c2noc(-c3ccccc3)n2)C1` (stereo not drawn) [Example 29, (6-Fluoro-pyridin-3-yl)-[3-(5-phenyl-[1,2,4]oxadiazol-3-yl)-piperidin-1-yl]-methanone], the melting point is 109 to 111 °C. In addition, in data set [1], the pEC50 was above 6.00.

The compound `Cc1oncc1C(=O)N1CCCC(c2noc(-c3ccc(F)cc3F)n2)C1` (stereo not drawn) [Example 24, {3-[5-(2,4-Difluoro-phenyl)-[1,2,4]oxadiazol-3-yl]-piperidin-1-yl}-(5-methyl-isoxazol-4-yl)-methanone] displayed a melting point of 79 °C. In data set [1], the negative-log EC50 (pEC50) is 5.00 to 6.00.

With `O=C(c1ccc(F)cc1)N1CCCC(c2noc(C3CCCC3)n2)C1` (stereo not drawn) [Example 35, (4-Fluoro-phenyl)-[3-(5-cyclopentyl-[1,2,4]oxadiazol-3-yl)-piperidin-1-yl]-methanone], the pEC50 in data set [1] is 5.00 to 6.00.

With `O=C(c1ccc(F)c(F)c1)N1CCC[C@H](c2noc(-c3ccc(F)cn3)n2)C1` [Example 45, (S)-(3,4-difluorophenyl)-{3-[5-(5-fluoropyridin-2-yl)-[1,2,4]oxadiazol-3-yl]-piperidin-1-yl}-methanone], the pEC50 in data set [1] was above 6.00.

As for `O=C(c1c(F)cc(F)cc1F)N1CCC[C@H](c2noc(-c3ccccn3)n2)C1` [Example 51, [(S)-3-(5-Pyridin-2-yl-[1,2,4]oxadiazol-3-yl)-piperidin-1-yl]-(2,4,6-trifluoro-phenyl)-methanone], the pEC50 in data set [1] was above 6.00.

In the case of `O=C(c1ccc(F)cc1)N1CCC[C@H](c2noc(-c3ccccn3)n2)C1` [Example 46, (S)-(4-fluorophenyl)-{3-[5-(pyridin-2-yl)-[1,2,4]oxadiazol-3-yl]-piperidin-1-yl}-methanone], the negative logarithm of the EC50 (pEC50) in data set [1] was 5.00 to 6.00.

For `Cc1oncc1C(=O)N1CCCC(c2noc(-c3ccccc3F)n2)C1` (stereo not drawn) [Example 7, {3-[5-(2-Fluoro-phenyl)-[1,2,4]oxadiazol-3-yl]-piperidin-1-yl}-(5-methyl-isoxazol-4-yl)-methanone], in data set [1], the negative-log EC50 (pEC50) is above 6.00.

Turning to `O=C(c1ccc(F)c(F)c1)N1CCC[C@H](c2noc(-c3ccncc3F)n2)C1` [Example 50, (3,4-Difluoro-phenyl)-{(S)-3-[5-(3-fluoro-pyridin-4-yl)-[1,2,4]oxadiazol-3-yl]-piperidin-1-yl}-methanone], in data set [1], the negative logarithm of the EC50 (pEC50) was 5.00 to 6.00.

In the case of `Cc1cc(F)ccc1C(=O)N1CCCC(c2noc(-c3ccncc3)n2)C1` (stereo not drawn) [Example 22, (4-Fluoro-2-methyl-phenyl)-[3-(5-pyridin-4-yl-[1,2,4]oxadiazol-3-yl)-piperidin-1-yl]-methanone], the negative-log EC50 (pEC50) in data set [1] was 5.00 to 6.00.

For `O=C(c1ccc(F)c(F)c1)N1CCC[C@H](c2noc(-c3ccccn3)n2)C1` [Example 47, (S)-(3,4-Difluorophenyl)-{3-[5-(pyridin-2-yl)-[1,2,4]oxadiazol-3-yl]-piperidin-1-yl}-methanone], the negative-log EC50 (pEC50) in data set [1] was above 6.00.

Consider `Cc1cc(F)ccc1C(=O)N1CCCC(c2noc(-c3ccccc3)n2)C1` (stereo not drawn) [Example 34, (4-Fluoro-2-methyl-phenyl)-[3-(5-phenyl-[1,2,4]oxadiazol-3-yl)-piperidin-1-yl]-methanone], for which, in data set [1], the pEC50 was 5.00 to 6.00.

With `O=C(c1ccc(F)c(F)c1F)N1CCC[C@H](c2noc(-c3ccccn3)n2)C1` [Example 52, [(S)-3-(5-Pyridin-2-yl-[1,2,4]oxadiazol-3-yl)-piperidin-1-yl]-(2,3,4-trifluoro-phenyl)-methanone], the pEC50 in data set [1] is above 6.00.

As to `Cc1oncc1C(=O)N1CCCC(c2noc(-c3ccncc3)n2)C1` (stereo not drawn) [Example 20, (5-Methyl-isoxazol-4-yl)-[3-(5-pyridin-4-yl-[1,2,4]oxadiazol-3-yl)-piperidin-1-yl]-methanone], in data set [1], the negative logarithm of the EC50 (pEC50) was below 5.00.

Consider `O=C(c1cncc(F)c1)N1CCC[C@H](c2noc(-c3ccc(F)cc3)n2)C1` [Example 43, {(S)-3-[5-(4-Fluoro-phenyl)-[1,2,4]oxadiazol-3-yl]-piperidin-1-yl}-(5-fluoro-pyridin-3-yl)-methanone], for which the pEC50 in data set [1] is 5.00 to 6.00.

As to `CNc1cc(F)ccc1C(=O)N1CCCC(c2noc(-c3ccccc3F)n2)C1` (stereo not drawn) [Example 5, (4-Fluoro-2-methylamino-phenyl)-{3-[5-(2-fluoro-phenyl)-[1,2,4]oxadiazol-3-yl]-piperidin-1-yl}-methanone], the pEC50 in data set [1] is 5.00 to 6.00.

With `Cc1cc(F)ccc1C(=O)N1CCCC(c2noc(-c3ccccc3F)n2)C1` (stereo not drawn) [Example 23, (4-Fluoro-2-methyl-phenyl)-{3-[5-(2-fluoro-phenyl)-[1,2,4]oxadiazol-3-yl]-piperidin-1-yl}-methanone], the negative-log EC50 (pEC50) in data set [1] is 5.00 to 6.00.

For the compound `O=C(c1ccncc1F)N1CCC[C@H](c2noc(-c3ccc(F)cc3)n2)C1` [Example 41, {(S)-3-[5-(4-Fluoro-phenyl)-[1,2,4]oxadiazol-3-yl]-piperidin-1-yl}-(3-fluoro-pyridin-4-yl)-methanone], the pEC50 in data set [1] is above 6.00.

As to `O=C(c1c(F)cccc1F)N1CCC[C@H](c2noc(-c3ccccn3)n2)C1` [Example 53, (2,6-Difluoro-phenyl)-[(S)-3-(5-pyridin-2-yl-[1,2,4]oxadiazol-3-yl)-piperidin-1-yl]-methanone], the negative logarithm of the EC50 (pEC50) in data set [1] was 5.00 to 6.00.
